What all share (format): cell-based
In experiment [1] the test system is HeLa cells. The experiment can be described thus: Apoptosis by flow cytometry (Annexin V-FITC). To be noted: 24 h, control 3.07%. The protocol:
After incubating the cells in 6-well plates for one day, a concentration gradient of compound 3a was added for 24 h. The cells were washed twice with PBS and then digested by adding trypsin. The supernatant was removed via centrifugation, and Annexin V-FITC buffer and Annexin-FITC solution were added. The percentage of the apoptotic cells was detected on a FACS Calibur flow cytometer (Beckman Dickinson & Co., Franklin Lakes, NJ, USA).
For orientation: In flow cytometry, cells or beads pass a laser one at a time.

In experiment [2] the test system is HeLa cells. In words: Cell cycle arrest assay (PI, flow cytometry). Particulars: 24 h. The protocol:
HeLa cells (5.5 × 10^5) were spread in 6-well plates overnight; the cells were treated with different concentration of compound 3a for 24 h. The cells were then washed twice with PBS and digested with trypsin. The supernatant was removed via centrifugation and fixed overnight in 70% ethanol. The cells were washed twice with PBS and resuspended in a 190 μL staining buffer containing 4 μL of 1 mg/mL PI (propidium iodide), 4 μL of 10 mg/mL RNaseA (ribonuclease), and 0.2 μL Tritonx-100. After staining for 20 min in the dark, the cell cycle distribution was detected using flow cytometry (Beckman Dickinson & Co., Franklin Lakes, NJ, USA).

Experiment [3] deals with HeLa cells. In words: Intracellular Ca2+ levels (Fluo-3 AM). To be noted: different concentrations, 24 h, versus control. The protocol:
HeLa cells (5.5 × 10^5) were spread in a 6-well plate and incubated for 24 h; then, the cells were treated with different concentrations of compound 3a for 24 h, and the cells were stained with the fluorescent probe Fluo-3 AM for 20 min and washed three times with PBS. Moreover, the nuclei were stained with DAPI in the dark for 30 min. Finally, the cells were observed under a fluorescence microscope (MD company, San Jose, CA, USA). Furthermore, the level of intracellular Ca^2+ was quantified using flow cytometry (Beckman Dickinson & Co., Franklin Lakes, NJ, USA).

A further experiment deals with PARP. In words: Western blot. To be noted: HeLa, 24 h. Here is the method: (§1) After HeLa cells (5.5 × 10^5) were seeded in 6-well plates and incubated for 24 h, the cells were treated with different concentrations of compound 3a. Then, the cells were lysed with lysis buffer and centrifuged, and the protein concentration of each sample supernatant was measured with the BCA (bicinchoninic acid) assay. Load the sample protein in equal amount, and stop the sodium dodecyl sulfate-polyacrylamide gel electrophoresis after the bands are separated. The gel was transferred to poly (vinylidene difluoride) membranes (Millipore, Billerica, MA, USA) and blocked with 5% nonfat milk in TBST (20 mM Tris-HCl, 150 mM NaCl, 0.05% Tween 20, pH 8.0, Tween: polyoxyethylene monolaurate sorbaitan) buffer for 1 h. The polyvinylidene fluoride membranes were washed with TBST and incubated with the corresponding primary antibody overnight in a refrigerator at 4 °C. The secondary antibodies were then conjugated with horseradish peroxidase (1:1000 dilution) for 60 min at room temperature. Finally, the blots were visualized with the Amersham ECL ([…]) and western blotting detection reagents according to the manufacturer’s instructions.
On the technique in general: Immunoblotting shows a protein as a band on a membrane.

In another experiment the test system is p21. The experiment can be described thus: Western blot. Particulars: HeLa, 24 h, compared with control. Here is the method:
as §1

As to `CC1(C)[C@@H](O)CC[C@]2(C)[C@H]3C(=O)C=C4[C@@H]5C[C@@](C)(C(=O)Oc6ccc(Br)cc6)CC[C@]5(C)CC[C@@]4(C)[C@]3(C)CC[C@@H]12` [Compound 3a, 4-Bromophenyl 3β-hydroxy-11-oxo-olean-12-en-30-oate], the “increase of apoptotic percentage compared with control” value in the experiment on HeLa cells [1] (10 μM) is on record as 4.50%; in the experiment with HeLa cells [1] (20 μM), 4.56%. Besides, the “increase of cell proportion in S phase compared with control” value in the experiment on HeLa cells [2] (10 μM) is on record as 4.56%; in the experiment with HeLa cells [2] (20 μM), 9.65%; with HeLa cells [2] (30 μM) it was 20.81%. Besides, in the experiment with HeLa cells [3], the “intracellular Ca2+ content” value is reported as “significantly higher”. Also, in the experiment on PARP, the “cleavage of PARP” value is reported as “increased cleavage”. In addition, the “gray value of p21 protein” value in the experiment on p21 was “upward trend”.

(Values after paper PMC10095686, “Evaluation of the Anticancer Activity and Mechanism Studies of Glycyrrhetic Acid Derivatives toward HeLa Cells” (Molecules, 2023).)
